Measured values published in patent EP2671597A1, “Chimeric constructs between glioma-homing peptide and cell-penetrating peptides, gHoPe2” (Cepep III AB, priority 2012, dated 2013).
“Also recorded” adds a separate entry of the source. Ends that are not written are not given here. FAM = 5(6)-carboxyfluorescein

Columns and labels:
human glioma cells (U87) = test: Cellular internalization by confocal microscopy; assay type: cell-based; conditions: 10 µM, 30 min incubation (Figure 3)
Protocol: (§1) U87 cells (1×10^4) were seeded in Lab-Tek® 8-well chamber slides to reach 50% confluence one day prior to experimentation. After 30 min of incubation with the peptide constructs in complete medium at 37°C, cells were washed four times with PBS, followed by the addition of trypan blue (0.1 %) in OptiMEM and examined using Olympus IX81 inverted microscope equipped with FluoView 1000 confocal system using a 60x water-immersion and 100x oil-immersion objectives and excitation at 488 nm (fluorescein). For the membrane association experiments the cells were incubated with FAM-labeled peptide for 30 min at 37°C in complete medium. After the incubation period, cells were washed once with PBS and re-suspended in fresh OptiMEM medium.
(§2) The cellular uptake of the chimeric peptides gHoPe2 and gHoPe3 in U87 cells, using confocal microscopy and flow cytometry is depicted in Figures 3 and 4, respectively.

U87 cells [1] = test: MTS cell viability (proliferation) assay; assay type: cell-based, human; conditions: FAM-labelled peptides, up to 20 µM, 24h
Protocol: Long-term toxicity was evaluated using an MTS proliferation assay (Promega, Madison, WI, USA). The MTS assay measures the activity of mitochondrial dehydrogenases to convert tetrazolium salts into formazan. Briefly, 1×10^4 cells were seeded 24h in 96-well plates before treatment with the peptides or peptide-drug conjugates, which was conducted in complete medium for 24h. Thereafter, MTS proliferation assay was used according to the manufacturer's protocol. Untreated cells were defined as 100% viable.
(§3) All figures are presented as mean ± SEM. The cell uptake data represent three independent experiments performed in duplicate. For toxicity measurements, a decrease in viability was considered significant at p <.001 using ANOVA Dunnett's multiple comparison test.

U87 cells [2] = test: LDH leakage assay (membrane integrity); assay type: cell-based, human; conditions: FAM-labelled peptides, up to 20 µM, 48h, compared to 0.2% of Triton
Protocol: Membrane integrity was evaluated using LDH leakage assay (SIGMA-ALDRICH™ St. Louise, MO, USA), which measures lactate dehydrogenase release. Briefly, 1×10^4 cells were seeded 24h in 96-well plates before treatment with the peptides or peptide-drug conjugates, which was conducted in complete medium for 48h. Thereafter, LDH leakage was assessed according to the manufacturer's protocol. Untreated cells were defined as no leakage and 100% leakage was defined as total LDH release by lysing cells in 0.2% Triton X-100 in HKR buffer.
as §3

subcutaneous U87 tumors = test: Antitumour effect in vivo, tumour growth; design: species or system mice; conditions: 8.3 mg/kg (369 µM, 100 µl) i.v. twice a week; Tukey post-hoc p<.05 (Figure 13)
Protocol: Localization of the peptide vectors was assessed postmortem after injecting FAM-labeled peptides in homozygous female nude mice (C.Cg/AnNTac-Foxn1nu, Taconic), bearing tumor xenografts either intracranially or subcutaneously. 8×10^5 U87 cells were resuspended in 100 µl (s.c tumor model) or in 5 µl (intracranial tumor model) of fresh DMEM medium, without serum and antibiotics. The xenografting was performed by implanting the cell suspension subcutaneously or intracranially into one of the striatums (stereotaxic coordinates A=+1, L=+2, V=+3.5). At the appearance of the first signs of tumor growth (for the subcutaneous tumors: tumor size of approx 300 mm^3; for the intracranial tumors: the first sign is usually weight loss), mice were injected i.v. (via tail vein) with the peptide constructs. For the biodistribution, 100 µl of 200 µM FAM-labeled peptide suspension (in saline) was used. This represents a dose of 4 mg/kg for a mouse of 20 g. […]
The tumor treatments were performed using 1 mg/kg doxorubicin (369 µM, 100 µl, for an animal of 20 g) and an equivalent dose (8.3 mg/kg) of dox-gHoPe2 (369 µM, 100 µl) i.v. twice a week. The subcutaneous tumor dimensions were measured using calibre; tumor volume was calculated as (length × width^2)/2.
The efficacy of dox-gHoPe2 was assessed in the model of subcutaneous U87 tumors. […]

HEK cells = test: Confocal microscopy, association of FAM-labelled targeting peptide with cells; assay type: cell-based, human; conditions: 20 µM, 30 minutes
Protocol: (§4) The human embryonic kidney 293 cell line (HEK 293) and human glioblastoma-astrocytoma, epithelial-like cell line U87 MG (American Type Culture Collection via LGC, Sweden) and cervical cancer HeLa cells were cultured in Dulbecco's Modified Eagle Medium (DMEM) with L-glutamine. Medium was supplemented with 10% FBS, sodium pyruvate (1 mM), penicillin (100 U/ml), streptomycin (100 µg/ml) and 1% nonessential amino acids (further denoted as complete medium) (PAA Laboratories GmbH, Austria). Cell cultures were cultivated at 37°C in a humidified 5% CO2 incubator.
as §1
(§5) To confirm binding of the targeting peptide with glioma cells, gHo peptide was labeled with fluorescent marker FAM (see the composition in Table 1) and incubated with U87 glioma cells as well as with two non-neuronal cell lines, HeLa and HEK, for 30 minutes at the room temperature, followed by mild washing of the cells.

U87 glioma cells = test: as above; assay type: cell-based, human
Protocol: as §4, §1, §5

HeLa cells = test: as above; assay type: cell-based; conditions: 20 µM, 30 minutes
Protocol: as §4
as §1, with “OptiMEM medium. […]” for “OptiMEM medium.”

human glioma cells = test: Cellular uptake by flow cytometry (FACS); assay type: cell-based; conditions: 30 min incubation (Figure 4)
Protocol: U87, HEK and Hela cells (5×10^4) were seeded 24 h prior to experiments into 24-well plates. Cells were incubated for 30 min in complete media after treatment with the peptide constructs. Thereafter, cells were washed four times with PBS and once with trypsin, suspended in ice-cold PBS and flow cytometry analysis was carried out with a BD LSR II flow cytometer (BD Biosciences, San Jose, CA, USA) equipped with a 488 nm argon laser and analyzed with FACSDiva software. The filter settings for excitation and emission were 480/530 nm bandpass (FL1) for FITC. Live cells were gated by forward/side scattering from a total of 10000 events.
as §2

[3] = tested on: intracranial glioblastoma; test: Biodistribution of FAM-labelled peptides, intracranial tumour model; assay type: in vivo, mice; conditions: i.v.; for uptake in lungs, heart, spleen, muscle and skin: animals with intracranial tumours, 3 h (Figure 8); for localization in intracranial tumour: 3 h before tissue collection, FAM fluorescence (Figures 6, 7)
Protocol: (§6) Localization of the peptide vectors was assessed postmortem after injecting FAM-labeled peptides in homozygous female nude mice (C.Cg/AnNTac-Foxn1nu, Taconic), bearing tumor xenografts either intracranially or subcutaneously. 8×10^5 U87 cells were resuspended in 100 µl (s.c tumor model) or in 5 µl (intracranial tumor model) of fresh DMEM medium, without serum and antibiotics. The xenografting was performed by implanting the cell suspension subcutaneously or intracranially into one of the striatums (stereotaxic coordinates A=+1, L=+2, V=+3.5). At the appearance of the first signs of tumor growth (for the subcutaneous tumors: tumor size of approx 300 mm^3; for the intracranial tumors: the first sign is usually weight loss), mice were injected i.v. (via tail vein) with the peptide constructs. For the biodistribution, 100 µl of 200 µM FAM-labeled peptide suspension (in saline) was used. This represents a dose of 4 mg/kg for a mouse of 20 g. At 3h post-injection, the animals were anesthetized and intracardially perfused with 50 ml of PBS, followed by 50 ml of fixation solution (4% w/v paraformaldehyde in PBS, pH 7.4). Tissues were collected, postfixed for 2h in the same fixation solution, cryoprotected in sucrose (10% for 24h, followed by 30% for 1 week, at 4°C), snap frozen in 2-methylbutane (AppliChem) kept on dry ice. The tissues were cut on a cryostat with a thickness of 10-15 µm, counterstained with DAPI (AppliChem) and mounted using Vectashield (Vector Labs) mounting media.
(§7) The biodistribution of FAM-labeled gHoPe2 was determined in two mouse tumour models. FAM-labeled gHo and gHoPe2 were injected 3h before tissue collection. The circulation time of 3 h was chosen from initial pilot experiments with 1 h, 3h, 6h and 24h circulation times, where the highest fluorescence in the tumor occurred at 3h.
Secondly, biodistribution of FAM-labeled gHo and gHoPe2, as well as FAM-labeled pVEC and gHoPe3 was assessed in a mouse model of intracranial glioblastoma. To estimate the general distribution of gHoPe2 within the glioma-containing brain, the whole coronal section was reconstructed from single microscopic images.

subcutaneous U87 tumor = test: Biodistribution of FAM-labelled peptides, subcutaneous tumour model; assay type: in vivo, mice; conditions: for localization in tumor tissue: i.v., 3 h before tissue collection, FAM fluorescence of cryosections (Figure 5)
Protocol: as §6, §7
Firstly, a mouse model of subcutaneous U87 tumor was used. […] We detected no FAM-labeled gHo in tumor tissue and none of the peptides in the (intact) brain tissue, the kidney, and liver.

LLIILRRRIRKQAHAHSK-NH2 [pVEC, 18-amino acid cell-penetrating peptide derived from murine vascular endothelial-cadherin, reference compound]
Cellular internalization (human glioma cells (U87)): internalized very efficiently
cell viability (MTS) (U87 cells [1]): did not induce any toxic effects
LDH leakage (membrane leakage) (U87 cells [2]): did not induce any significant membrane leakage

XCLLIILRRRIRKQAHAHSK-NHQQQNPHQPPM-NH2 [Dox-gHoPe2]
tumor size versus untreated group (subcutaneous U87 tumors): significantly smaller

NHQQQNPHQPPM-NH2 [gHo, glioma-homing targeting peptide]
binding to HEK cells (HEK cells): not and did not bind
Association of the targeting peptide gHo with glioma cells (U87) (U87 glioma cells; 20 µM (Figure 2)): associated
association of gHo with U87 (U87 glioma cells; FAM-labelled peptide, all tested concentrations 1-20 µM, 30 minutes, mild washing): confirmed association
binding to HeLa cells (HeLa cells): not and did not bind
Cellular internalization (human glioma cells (U87)): did not internalize
cellular uptake (human glioma cells): did not internalize
uptake in lungs, heart, spleen, muscle and skin [3]: No uptake
localization in intracranial tumour [3]: not
LDH leakage (membrane leakage) (U87 cells [2]): did not induce any significant membrane leakage

NHQQQNPHQPPM-NH2 [FAM-gHo] ({FAM}-NHQQQNPHQPPM-NH2; also: FAM label, place not given here) [gHo N-terminally labelled with 5(6)-carboxyfluorescein]
Cellular internalization (human glioma cells (U87)): no uptake
localization in tumor tissue (subcutaneous U87 tumor): detected no

LLIILRRRIRKQAHAHSK-NH2 [FAM-pVEC] ({FAM}-LLIILRRRIRKQAHAHSK-NH2) [pVEC N-terminally labelled with 5(6)-carboxyfluorescein, reference compound]
Cellular internalization (human glioma cells (U87)): exhibited cellular uptake of varying degrees
cellular uptake (human glioma cells): highest
cell viability (MTS) (U87 cells [1]): did not affect cell viability
LDH leakage (membrane leakage) (U87 cells [2]): did not affect cell viability

NHQQQNPHQPPM-LLIILRRRIRKQAHAHSK-NH2 [FAM-gHoPe3]
Cellular internalization (human glioma cells (U87)): exhibited cellular uptake of varying degrees; also recorded: internalized, but to a lesser extent
cell viability (MTS) (U87 cells [1]): did not affect cell viability
cell viability (MTS) (U87 cells [1]; listed as gHoPe3): did not induce any toxic effects
LDH leakage (membrane leakage) (U87 cells [2]): did not affect cell viability
LDH leakage (membrane leakage) (U87 cells [2]; listed as gHoPe3): did not induce any significant membrane leakage

LLIILRRRIRKQAHAHSK-NHQQQNPHQPPM-NH2 [FAM-gHoPe2]
Cellular internalization (human glioma cells (U87)): exhibited cellular uptake of varying degrees
cellular uptake (human glioma cells): highest; also recorded: significantly differed from the uptake values of FAM-gHoPe3 (main effect p<.01, Tukey post hoc) and FAM-gHo (p<.001)
localization in tumor tissue (subcutaneous U87 tumor): localizes in tumours; also recorded: homing
circulation time of the highest fluorescence in the tumor (subcutaneous U87 tumor; initial pilot experiments with 1 h, 3h, 6h and 24h circulation times, tumour model not stated): 3 h
uptake in lungs, heart, spleen, muscle and skin [3]: No uptake
presence in adjacent intact brain, kidney and liver ([3]; 3 h (Figure 7)): not
localization in intracranial tumour [3]: localizes in tumours
localization in intracranial tumour ([3]; listed as FAM-labelled gHoPe2): global FAM localization in the tumour area
localization in intracranial tumour ([3]; listed as gHoPe2): can be seen in the tumor area; also recorded: specific localization
localization in the adjacent intact brain ([3]; whole coronal section, 3 h (Figure 6)): not
cell viability (MTS) (U87 cells [1]): did not affect cell viability
cell viability (MTS) (U87 cells [1]; listed as gHoPe2): did not induce any toxic effects
LDH leakage (membrane leakage) (U87 cells [2]): did not affect cell viability
LDH leakage (membrane leakage) (U87 cells [2]; listed as gHoPe2): did not induce any significant membrane leakage
